Laboratory results: BindingDB's records for doi:10.1016/s0028-3908(00)00035-6 (University of Cambridge, 2000)
Values joined by “and” are separate entries in the source; they are usually repeats but may differ in a detail not shown here. Equal entries are not always repeated.

What was measured:
[1] = biological target: Somatostatin receptor type 5 (Homo sapiens, UniProt P35346)
[2] = biological target: Somatostatin receptor type 3 (Homo sapiens, UniProt P32745)
[3] = biological target: Somatostatin receptor type 2 (Homo sapiens, UniProt P30874)
[4] = biological target: Somatostatin receptor type 4 (Homo sapiens, UniProt P31391)
[5] = biological target: Somatostatin receptor type 2 (Rattus norvegicus, UniProt P30680)
Chain of Somatostatin receptor type 2 (Rattus norvegicus, UniProt P30680) (P30680 whole entry): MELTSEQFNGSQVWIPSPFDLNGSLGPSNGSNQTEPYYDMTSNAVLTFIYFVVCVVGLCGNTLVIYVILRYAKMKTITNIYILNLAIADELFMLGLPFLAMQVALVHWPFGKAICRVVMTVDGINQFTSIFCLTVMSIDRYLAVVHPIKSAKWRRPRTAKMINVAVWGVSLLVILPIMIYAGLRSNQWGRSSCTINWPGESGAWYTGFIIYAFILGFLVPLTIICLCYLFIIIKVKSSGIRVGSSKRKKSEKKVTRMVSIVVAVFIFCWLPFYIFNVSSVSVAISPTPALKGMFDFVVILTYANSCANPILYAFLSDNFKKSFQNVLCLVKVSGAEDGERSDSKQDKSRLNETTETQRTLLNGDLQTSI

Chain of Somatostatin receptor type 3 (P32745 whole entry): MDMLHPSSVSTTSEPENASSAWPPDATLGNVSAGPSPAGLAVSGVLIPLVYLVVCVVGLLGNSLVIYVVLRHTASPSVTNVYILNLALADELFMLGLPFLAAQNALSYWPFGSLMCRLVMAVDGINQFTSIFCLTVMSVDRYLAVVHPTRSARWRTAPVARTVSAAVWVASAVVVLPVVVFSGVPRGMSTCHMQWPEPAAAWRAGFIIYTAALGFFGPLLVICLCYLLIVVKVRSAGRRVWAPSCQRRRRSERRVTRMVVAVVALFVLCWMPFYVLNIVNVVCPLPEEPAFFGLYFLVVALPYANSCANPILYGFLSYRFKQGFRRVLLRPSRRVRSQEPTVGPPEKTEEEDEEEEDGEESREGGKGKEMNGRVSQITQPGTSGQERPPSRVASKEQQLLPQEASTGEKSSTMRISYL
Chain of Somatostatin receptor type 4 (P31391 whole entry): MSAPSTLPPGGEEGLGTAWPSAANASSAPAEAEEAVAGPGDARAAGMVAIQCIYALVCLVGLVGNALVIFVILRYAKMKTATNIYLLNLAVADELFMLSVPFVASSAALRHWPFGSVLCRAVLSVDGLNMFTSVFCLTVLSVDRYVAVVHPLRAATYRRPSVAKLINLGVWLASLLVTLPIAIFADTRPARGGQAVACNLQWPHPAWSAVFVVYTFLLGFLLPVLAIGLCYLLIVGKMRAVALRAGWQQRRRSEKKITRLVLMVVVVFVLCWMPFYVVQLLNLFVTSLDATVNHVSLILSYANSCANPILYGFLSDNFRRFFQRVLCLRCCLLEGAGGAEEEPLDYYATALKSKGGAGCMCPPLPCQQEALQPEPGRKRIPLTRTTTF
Chain of Somatostatin receptor type 5 (P35346 whole entry): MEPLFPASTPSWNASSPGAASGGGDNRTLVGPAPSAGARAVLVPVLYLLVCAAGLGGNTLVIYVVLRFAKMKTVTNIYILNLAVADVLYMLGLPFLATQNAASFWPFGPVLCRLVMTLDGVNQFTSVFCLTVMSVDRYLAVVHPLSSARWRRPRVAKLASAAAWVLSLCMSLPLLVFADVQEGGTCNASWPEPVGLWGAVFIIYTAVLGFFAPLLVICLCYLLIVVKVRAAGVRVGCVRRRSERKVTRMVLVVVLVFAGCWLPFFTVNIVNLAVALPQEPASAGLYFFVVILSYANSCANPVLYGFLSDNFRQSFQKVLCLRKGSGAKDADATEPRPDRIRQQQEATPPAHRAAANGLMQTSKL
Chain of Somatostatin receptor type 2 (Homo sapiens, UniProt P30874) (P30874 whole entry): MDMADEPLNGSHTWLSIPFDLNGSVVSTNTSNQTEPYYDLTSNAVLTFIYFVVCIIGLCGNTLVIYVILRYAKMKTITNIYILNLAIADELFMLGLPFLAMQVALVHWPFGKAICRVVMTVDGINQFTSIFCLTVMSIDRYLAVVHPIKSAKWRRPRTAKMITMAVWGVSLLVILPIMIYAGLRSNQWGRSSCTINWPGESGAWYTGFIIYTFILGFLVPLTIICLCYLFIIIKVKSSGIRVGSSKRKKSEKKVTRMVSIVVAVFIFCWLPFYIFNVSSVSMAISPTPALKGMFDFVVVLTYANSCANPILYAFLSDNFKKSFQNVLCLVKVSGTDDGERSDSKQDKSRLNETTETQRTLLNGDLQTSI

- Ki [1]: 331 nM
- Ki [2]: 851 nM
- Ki [3]: 2.63 nM
- Ki [4]: 1740 nM
- Ki [5]: 7.94 nM and 4.47 nM
SMILES: CC(=O)N[C@@H](Cc1ccc([N+](=O)[O-])cc1)C(=O)N[C@@H]1CSSC[C@@H](C(=O)N[C@H](Cc2ccc(O)cc2)C(N)=O)NC(=O)[C@H]([C@@H](C)O)NC(=O)[C@H](CCCCN)NC(=O)[C@@H](Cc2c[nH]c3ccccc23)NC(=O)[C@H](Cc2ccc(O)cc2)NC1=O [CAS_183658-72-2]
